According to BindingDB's records for PubMed 7751958 (Cnrs Ccipe, 1995):
Values joined by “and” are separate entries in the source; they are usually repeats but may differ in a detail not shown here. Equal entries are not always repeated.

Legend:
[1] = target: Glutamate metabotropic receptor 1 (Sus scrofa, UniProt F1S737)
[2] = target: Glutamate metabotropic receptor 5 (Cavia porcellus, UniProt H0VDS0)
Glutamate metabotropic receptor 5, sequence (H0VDS0 whole entry): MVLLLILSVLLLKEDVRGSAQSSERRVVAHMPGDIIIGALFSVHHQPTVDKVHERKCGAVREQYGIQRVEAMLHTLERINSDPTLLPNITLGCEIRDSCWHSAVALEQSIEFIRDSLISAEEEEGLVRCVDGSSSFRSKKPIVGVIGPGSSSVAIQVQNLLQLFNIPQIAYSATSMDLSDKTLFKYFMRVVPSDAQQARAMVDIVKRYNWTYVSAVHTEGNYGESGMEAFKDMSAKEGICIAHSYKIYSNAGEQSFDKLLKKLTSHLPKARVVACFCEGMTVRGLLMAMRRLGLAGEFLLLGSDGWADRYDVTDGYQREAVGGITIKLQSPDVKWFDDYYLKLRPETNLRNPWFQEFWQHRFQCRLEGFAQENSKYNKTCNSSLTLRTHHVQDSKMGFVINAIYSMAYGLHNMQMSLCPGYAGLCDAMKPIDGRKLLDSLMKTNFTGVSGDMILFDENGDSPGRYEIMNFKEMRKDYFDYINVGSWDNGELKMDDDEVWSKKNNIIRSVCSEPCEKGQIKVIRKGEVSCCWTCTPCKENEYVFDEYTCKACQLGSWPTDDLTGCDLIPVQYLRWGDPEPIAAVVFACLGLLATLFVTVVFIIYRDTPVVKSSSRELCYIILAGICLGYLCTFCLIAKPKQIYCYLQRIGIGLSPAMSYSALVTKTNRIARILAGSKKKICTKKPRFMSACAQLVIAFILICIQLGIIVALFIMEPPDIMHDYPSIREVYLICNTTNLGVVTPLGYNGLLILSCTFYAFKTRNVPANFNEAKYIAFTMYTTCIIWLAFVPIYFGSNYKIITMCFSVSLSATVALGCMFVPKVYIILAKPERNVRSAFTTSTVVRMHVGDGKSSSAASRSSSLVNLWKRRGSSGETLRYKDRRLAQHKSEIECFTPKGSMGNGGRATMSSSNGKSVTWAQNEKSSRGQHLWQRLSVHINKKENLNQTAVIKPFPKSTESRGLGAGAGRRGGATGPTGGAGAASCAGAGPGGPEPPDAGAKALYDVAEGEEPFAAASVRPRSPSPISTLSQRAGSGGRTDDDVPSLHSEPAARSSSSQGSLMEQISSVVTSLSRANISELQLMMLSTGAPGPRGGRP

Glutamate metabotropic receptor 1, sequence (F1S737 whole entry): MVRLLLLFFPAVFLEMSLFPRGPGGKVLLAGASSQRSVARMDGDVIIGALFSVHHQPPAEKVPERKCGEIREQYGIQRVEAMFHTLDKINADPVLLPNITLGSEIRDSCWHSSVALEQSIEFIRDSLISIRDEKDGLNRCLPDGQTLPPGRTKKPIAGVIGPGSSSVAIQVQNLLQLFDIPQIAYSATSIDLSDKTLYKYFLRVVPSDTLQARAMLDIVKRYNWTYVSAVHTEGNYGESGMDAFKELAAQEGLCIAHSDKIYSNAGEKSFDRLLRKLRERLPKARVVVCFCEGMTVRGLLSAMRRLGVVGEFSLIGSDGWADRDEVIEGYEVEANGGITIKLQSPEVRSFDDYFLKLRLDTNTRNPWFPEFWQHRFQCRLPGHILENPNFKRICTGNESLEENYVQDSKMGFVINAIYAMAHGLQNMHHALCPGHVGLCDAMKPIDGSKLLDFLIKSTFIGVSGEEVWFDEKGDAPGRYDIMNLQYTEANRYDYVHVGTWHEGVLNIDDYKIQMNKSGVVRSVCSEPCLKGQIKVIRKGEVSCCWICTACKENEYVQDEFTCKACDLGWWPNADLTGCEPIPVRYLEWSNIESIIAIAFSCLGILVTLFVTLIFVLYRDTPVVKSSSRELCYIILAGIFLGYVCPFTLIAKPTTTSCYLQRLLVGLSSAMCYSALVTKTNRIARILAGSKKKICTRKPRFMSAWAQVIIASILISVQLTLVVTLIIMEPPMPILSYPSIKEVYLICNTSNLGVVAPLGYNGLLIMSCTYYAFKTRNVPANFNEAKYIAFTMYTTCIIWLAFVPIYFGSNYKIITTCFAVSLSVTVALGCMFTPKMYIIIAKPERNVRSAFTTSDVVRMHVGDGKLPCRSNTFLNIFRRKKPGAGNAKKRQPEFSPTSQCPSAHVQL

Row | Compound | Ki [1] | Ki [2]
1 | N[C@@]1(C(=O)O)CC[C@H](C(=O)O)C1 [1S, 3R-ACPD] | > 10 µM and 9.3 µM | > 10 µM and 6.7 µM and 5.3 µM
2 | N[C@]1(C(=O)O)CC[C@@H](C(=O)O)C1 | > 10 µM | > 10 µM
3 | N[C@@H](Cn1oc(=O)[nH]c1=O)C(=O)O [2-amino-3-(3,5-dioxo[1,2,4]oxadiazolidin-2-yl)propionic acid] | 0.26 µM | 0.022 µM and 0.047 µM
4 | N[C@@H](CCC(=O)O)C(=O)O [L-Glutamic acid] | > 10 µM | 9.75 µM and 7.67 µM
5 | NC(C(=O)O)c1cc(=O)[nH]o1 (stereo not given) [Amino-(3-hydroxy-isoxazol-5-yl)-acetic acid(Ibotenic acid)] | > 10 µM | 2.87 µM and 1.93 µM
